Measurements reported in patent publication US11473077B2, “Engineered tyrosine ammonia lyase” (Codexis, Inc., priority 2018, dated 2022).

Experiments:
[1] = target: T1, Flavobacterium johnsoniae tyrosine ammonia lyase (TAL), SEQ ID NO: 6 (Flavobacterium johnsoniae, UniProt A5FKY3); test: SFP characterization assay for kinetic parameters on tyrosine (Michaelis-Menten fit, absorbance at 290 nm); assay type: biochemical; conditions: 0-2.48 mM tyrosine, 200 mM sodium phosphate, pH 7.0, A290
T1 sequence (A5FKY3 1-506): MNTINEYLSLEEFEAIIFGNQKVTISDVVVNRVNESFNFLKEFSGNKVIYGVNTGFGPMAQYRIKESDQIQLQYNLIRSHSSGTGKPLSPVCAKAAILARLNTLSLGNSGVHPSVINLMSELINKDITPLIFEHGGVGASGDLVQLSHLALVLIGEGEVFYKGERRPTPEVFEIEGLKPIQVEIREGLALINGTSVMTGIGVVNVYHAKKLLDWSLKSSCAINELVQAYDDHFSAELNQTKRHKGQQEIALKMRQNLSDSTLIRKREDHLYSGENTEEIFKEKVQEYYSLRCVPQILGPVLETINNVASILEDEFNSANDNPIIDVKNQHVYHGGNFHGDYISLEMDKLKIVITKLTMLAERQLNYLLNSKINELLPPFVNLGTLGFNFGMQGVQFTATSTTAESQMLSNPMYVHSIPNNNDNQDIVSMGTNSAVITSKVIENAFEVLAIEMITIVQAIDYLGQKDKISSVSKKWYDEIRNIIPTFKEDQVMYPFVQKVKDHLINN
From the text: (§1) Polynucleotide sequences encoding phenylalanine and tyrosine ammonia lyases from Stanieria cyanosphaera (SEQ ID NO: 2), Chroogloeocystis siderophila (SEQ ID NO: 4), Flavobacterium johnsoniae (SEQ ID NO: 6), and Rhodotorula glutinis (SEQ ID NO: 8) were synthesized as the genes of SEQ ID NOS: 1, 3, 5, and 7, respectively. These synthetic genes were cloned into a pCK110900 vector system (See e.g., U.S. Pat. No. 7,629,157 and US Pat. Appln. Publn. Nos. 2016/0244787, and 2006/0195947, all of which are incorporated by reference), and subsequently expressed in an E. coli strain derived from W3110. In some embodiments, expression vectors lacking antimicrobial resistance markers find use.
(§2) E. coli cultures transformed with plasmids containing TAL variants were plated onto LBagar plates with 1% glucose and in some instances, 30 μg/mL chloramphenicol, and grown overnight at 37° C. A single colony from each culture was transferred to 5 mL of Luria Broth (LB) with 1% glucose and 30 μg/mL chloramphenicol, where appropriate. The cultures were grown for 18 h at 30° C., 250 rpm, and subcultured approximately 1:50 into 250 ml of TB with 30 μg/mL of chloramphenicol. The cultures were grown for approximately 3-4 h at 30° C., 250 rpm, to an OD600 of 0.6-0.8, and induced with 1 mM of IPTG. The cultures were grown for 20 h at 30° C., 250 rpm. Cells were harvested by centrifugation (7000 rpm×10 min, 4° C.), and the supernatants were discarded. The pellets were resuspended in 30 mL of 20 mM sodium phosphate, pH 8.0, with 150 mM NaCl in some instances, and lysed using a single pass through a microfluidizer (Microfluidics), at 110 psi. The lysates were pelleted (10,000× rpm, 30 min, 4° C.), and the supernatants were heated for 1-2 hours at 60-65° C. in a water bath before being pelleted again (10,000× rpm, 1 h, 4° C.). The resulting supernatants were then frozen and lyophilized to generate powders containing the expressed enzymes.
(§3) SFP Characterization Assay for Activity on Tyrosine and Phenylalanine
(§4) To evaluate if the mutations in the TAL variants had altered kinetics, the Michaelis constant (Km) and maximum velocity (Vmax) were determined for each variant. To assay, 20 μl of diluted TAL variants at 1 g/L and 180 μL of 2-fold serially diluted tyrosine (0-2.48 mM tyrosine in 200 mM sodium phosphate, pH 7.0), were added to the wells of a 96-well UV-STAR® plate (Greiner Bio-One). The reactions were mixed briefly, and the activity was determined by tracking the absorbance at 290 nm over time (every 14-37s over 5 min) using a SPECTRAMAX® Plus 384 or a SPECTRAMAX® 190 (Molecular Devices) absorbance microplate reader. The Vmax and Km for each tested TAL variant was determined by fitting the data to a Michaelis-Menten equation using non-linear regression.

[2] = target: T2, Stanieria cyanosphaera tyrosine ammonia lyase (TAL), wild type, SEQ ID NO: 2 (Stanieria cyanosphaera, UniProt K9XQ92); test: as above; assay type: biochemical; conditions: 0-2.48 mM tyrosine, 200 mM sodium phosphate, pH 7.0, A290
T2 sequence (K9XQ92 1-562): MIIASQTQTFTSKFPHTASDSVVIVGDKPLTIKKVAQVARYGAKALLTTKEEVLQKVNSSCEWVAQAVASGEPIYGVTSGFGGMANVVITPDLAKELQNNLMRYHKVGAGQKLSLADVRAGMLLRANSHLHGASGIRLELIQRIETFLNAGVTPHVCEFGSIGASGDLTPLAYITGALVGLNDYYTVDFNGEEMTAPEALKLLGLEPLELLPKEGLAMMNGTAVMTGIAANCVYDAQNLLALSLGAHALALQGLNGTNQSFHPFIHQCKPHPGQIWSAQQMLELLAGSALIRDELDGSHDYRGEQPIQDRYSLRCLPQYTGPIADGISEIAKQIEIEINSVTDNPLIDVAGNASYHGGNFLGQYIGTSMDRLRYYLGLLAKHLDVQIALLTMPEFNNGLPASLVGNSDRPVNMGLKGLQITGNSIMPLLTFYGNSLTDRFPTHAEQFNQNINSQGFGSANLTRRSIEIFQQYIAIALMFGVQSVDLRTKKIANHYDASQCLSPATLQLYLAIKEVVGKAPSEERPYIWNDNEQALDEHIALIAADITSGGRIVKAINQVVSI
From the text: as §1, §2, §3, §4

**Q.** `N[C@@H](Cc1ccc(O)cc1)C(=O)O` [Tyr, L-tyrosine] was tested. Which Km ([1]; read-out: Tyr Km) did it give?
**A.** Its Km is less than 50 µM.

**Q.** And the “Tyr Vmax” value ([1]; diluted TAL at 1 g/L)?
**A.** The value was “+ (“+” = 0.5-1)”.

**Q.** What about the Km ([2]; read-out: Tyr Km) of the same molecule?
**A.** The Km was 50 to 150 µM.

**Q.** And the “Tyr Vmax” value ([2]; diluted TAL at 1 g/L)?
**A.** The value was “+++ (“+++” > 5)”.
